Measurements taken from patent US9980976B2, “Use of REDD1 inhibitors to dissociate therapeutic and adverse atrophogenic effects of glucocorticoid receptor agonists” (Northwestern University, priority 2015, dated 2018).

System: GR
Assay: GR nuclear translocation (immunofluorescence in HaCaT, Western blot of nuclear extracts in CEM)
Assay type: cell-based, human
Conditions: HaCaT cells, 1 uM FA
Method: FIG. 15. Rapamycin inhibits GR nuclear translocation and phosphorylation. A. GR nuclear translocation in HaCaT cells was determined by immunofluorescence as described in Materials and Methods. Cells on coverslips were pretreated with solvent (Control) or Rapamycin (1 uM×6 h) and treated with 1 uM FA for indicated time. B. GR nuclear translocation in CEM cells was determined by Western blot analysis of nuclear protein extracts. Membranes were probed with anti-HDAC-1 antibodies to verify equal protein loading and transfer. C, D. GR phosphorylation in HaCaT (C) and CEM (D) cells was determined by Western blot analysis of whole cell lysates. Membranes were probed with anti-GAPDH antibodies to verify equal protein loading and transfer.
GR nuclear translocation was determined by immunofluorescence in HaCaT cells. Cells infected with pGIPZ and shREDD1 lentiviruses were selected with puromycin, seeded on coverslips. After the treatments, cells were fixed with 2% formaldehyde and permeabilized with acetone:methanol (1:1 v/v). After blocking, cells were incubated with primary rabbit anti-GR antibody (H-300, Santa Cruz Biotechnology, Santa Cruz, Calif., USA) followed by secondary anti-rabbit FITC-conjugated antibody (Jackson Immuno Research). Cell nuclei were counterstained with DAPI (Invitrogen, Life Technologies, Grand Island, N.Y., USA). […]

Question: For `CC1(C)O[C@@H]2C[C@H]3[C@@H]4C[C@H](F)C5=CC(=O)C=C[C@]5(C)[C@@]4(F)[C@@H](O)C[C@]3(C)[C@]2(C(=O)CO)O1` [FA, fluocinolone acetonide], which “time GR remained in the nucleus” value is on record?
Answer: 2 to 24 h

Question: And the “time to GR nuclear import” value?
Answer: 10 min
